In patent US6894034B1, “Sebum production inhibitors” (Maruha Corporation, priority 1999, dated 2005):

System: male hamster auricular skin tissue sections containing sebaceous glands
Experiment: Sebum production inhibitory effect on hamster auricular skin tissue sections (radiolabeled acetate incorporation, method of Hall et al.)
Type: cell-based
Settings: cultured 3 hours in Krebs-Ringer phosphate buffer, vs left auricula control
Procedure: Compounds of the present invention (Compound Nos. 1-10) were evaluated for sebum production inhibitory effect on hamster auricular skin tissue sections containing sebaceous glands.
The method of Hall et al. (Hall, D. W. R., Van den Hoven, W. E., Noordzij-Kamermans, N. J., Jaitly, K. D., Arch. Dermatol. Res., 275, 1 (1983)) was followed. Namely, male hamster auricular skin tissue sections (3 mm in diameter) containing sebaceous glands were cultured for 3 hours in Krebs-Ringer phosphate buffer containing radioactively labeled sodium acetate, and then tissues were hydrolyzed and extracted with hexane. The radioactively labeled fat levels in hexane were measured in a liquid scintillation counter to determine fat production inhibition levels in sebaceous glands. Skin tissues isolated from the right auricula were cultured in Krebs-Ringer phosphate buffer containing 0.01% or 0.05% of compounds of the present invention (Compound Nos. 1-10) (compound systems), while skin tissues from the left auricula of the same hamster were cultured in Krebs-Ringer phosphate buffer containing no compounds of the present invention (control system). The sebum production inhibition percentage was calculated by the equation below from the test data obtained. Sebum production inhibition (%)=[(Sebum production level in control system)−(Sebum production level in each compound system)]/(Sebum production level in control system)×100

[1] = Concentration of compound in the medium 0.01%
[2] = Concentration of compound in the medium 0.05%

| Compound | Sebum production inhibition (%) [1] [%] | Sebum production inhibition (%) [2] [%] |
| --- | --- | --- |
| CC(=O)N[C@@H]1[C@@H](O[C@@H]2O[C@H](C(=O)O)[C@@H](O[C@@H]3O[C@H](CO)[C@@H](O)[C@H](O[C@@H]4O[C@H](C(=O)O)[C@@H](O[C@@H]5O[C@H](CO)[C@@H](O)[C@H](O[C@@H]6OC(C(=O)O)=C[C@H](O)[C@H]6O)[C@H]5NC(C)=O)[C@H](O)[C@H]4O)[C@H]3NC(C)=O)[C@H](O)[C@H]2O)[C@H](O)[C@@H](CO)O[C@H]1O [compound 2, 4-deoxy-α-L-threo-hexa-4-enepyranuronosyl-(1→3)-O-2-acetamide-2-deoxy-β-D-glucopyranosyl-(1→4)-3-O-β-D-glucopyranuronosyl-(1→3)-O-2-acetamide-2-deoxy-β-D-glucopyranosyl-(1→4)-3-O-β-D-glucopyranuronosyl-(1→3)-O-2-acetamide-2-deoxy-β-D-glucopyranose] | 28.6 | 50.1 |
| CC(=O)N[C@@H]1[C@@H](O[C@@H]2O[C@H](C(=O)O)[C@@H](O[C@@H]3O[C@H](CO)[C@@H](O)[C@H](O[C@@H]4O[C@H](C(=O)O)[C@@H](O[C@@H]5O[C@H](CO)[C@@H](O)[C@H](O[C@@H]6O[C@H](C(=O)O)[C@@H](O[C@@H]7O[C@H](CO)[C@@H](O)[C@H](O[C@@H]8OC(C(=O)O)=C[C@H](O)[C@H]8O)[C@H]7NC(C)=O)[C@H](O)[C@H]6O)[C@H]5NC(C)=O)[C@H](O)[C@H]4O)[C@H]3NC(C)=O)[C@H](O)[C@H]2O)[C@H](O)[C@@H](CO)O[C@H]1O [compound 3, 4-deoxy-α-L-threo-hexa-4-enepyranuronosyl-(1→3)-O-2-acetamide-2-deoxy-β-D-glucopyranosyl-(1→4)-3-O-β-D-glucopyranuronosyl-(1→3)-O-2-acetamide-2-deoxy-β-D-glucopyranosyl-(1→4)-3-O-β-D-glucopyranuronosyl-(1→3)-O-2-acetamide-2-deoxy-β-D-glucopyranosyl-(1→4)-3-O-β-D-glucopyranuronosyl-(1→3)-O-2-acetamide-2-deoxy-β-D-glucopyranose] | 48.5 | 47.7 |
| CC(=O)N[C@H]1[C@H](O[C@H]2[C@H](O)[C@@H](O)[C@H](O)O[C@@H]2C(=O)O)O[C@H](CO)[C@@H](O)[C@@H]1O[C@@H]1OC(C(=O)O)=C[C@H](O)[C@H]1O [compound 7, 4-deoxy-α-L-threo-hexa-4-enepyranuronosyl-(1-3)-O-2-acetamide-2-deoxy-β-D-glucopyranosyl-(1→4)-3-O-β-D-glucopyranuronic acid] | 14.2 | 15.9 |
| CC(=O)N[C@H]1[C@H](O[C@H]2[C@H](O)[C@@H](O)[C@H](O)O[C@@H]2C(=O)O)O[C@H](CO)[C@@H](O)[C@@H]1O[C@@H]1O[C@H](C(=O)O)[C@@H](O[C@@H]2O[C@H](CO)[C@@H](O)[C@H](O[C@@H]3OC(C(=O)O)=C[C@H](O)[C@H]3O)[C@H]2NC(C)=O)[C@H](O)[C@H]1O [compound 8, 4-deoxy-α-L-threo-hexa-4-enepyranuronosyl-(1-3)-O-2-acetamide-2-deoxy-β-D-glucopyranosyl-(1-4)-3-O-β-D-glucopyranuronosyl-(13)-O-2-acetamide-2-deoxy-β-D-glucopyranosyl-(1→4)-3-O-β-D-glucopyranuronic acid] | 30.7 | 56.6 |
| CC(=O)N[C@@H]1[C@@H](O[C@@H]2O[C@H](C(=O)O)[C@@H](O[C@@H]3O[C@H](CO)[C@@H](O)[C@H](O[C@@H]4OC(C(=O)O)=C[C@H](O)[C@H]4O)[C@H]3NC(C)=O)[C@H](O)[C@H]2O)[C@H](O)[C@@H](CO)O[C@H]1O [compound 1, 4-deoxy-α-L-threo-hexa-4-enepyranuronosyl-(1→3)-O-2-acetamide-2-deoxy-β-D-glucopyranosyl-(1→4)-3-O-β-D-glucopyranuronosyl-(1→3)-O-2-acetamide-2-deoxy-β-D-glucopyranose] | 15.7 | 17.8 |
| CC(=O)N[C@H]1[C@H](O[C@H]2[C@H](O)[C@@H](O)[C@H](O[C@@H]([C@H](O)[C@H](O)CO)[C@H](CO)NC(C)=O)O[C@@H]2C(=O)O)O[C@H](CO)[C@@H](O)[C@@H]1O[C@@H]1O[C@H](C(=O)O)[C@@H](O[C@@H]2O[C@H](CO)[C@@H](O)[C@H](O[C@@H]3OC(C(=O)O)=C[C@H](O)[C@H]3O)[C@H]2NC(C)=O)[C@H](O)[C@H]1O [compound 6, 4-deoxy-α-L-threo-hexa-4-enepyranuronosyl-(1→3)-O-2-acetamide-2-deoxy-β-D-glucopyranosyl-(1→4)-3-O-β-D-glucopyranuronosyl-(13)-O-2-acetamide-2-deoxy-β-D-glucopyranosyl-(1→4)-3-O-β-D-glucopyranuronosyl-(1→3)-O-2-acetamide-2-deoxy-β-D-glucopyranitol] | 30.8 | 55.7 |
| CC(=O)N[C@@H]1[C@@H](O[C@@H]2O[C@H](C(=O)O)[C@@H](O[C@@H]3O[C@H](CO)[C@@H](O)[C@H](O[C@@H]4O[C@H](C(=O)O)[C@@H](O[C@@H]5O[C@H](CO)[C@@H](O)[C@H](O[C@@H]6O[C@H](C(=O)O)[C@@H](O[C@@H]7O[C@H](CO)[C@@H](O)[C@H](O[C@@H]8O[C@H](C(=O)O)[C@@H](O[C@@H]9O[C@H](CO)[C@@H](O)[C@H](O[C@@H]%10OC(C(=O)O)=C[C@H](O)[C@H]%10O)[C@H]9NC(C)=O)[C@H](O)[C@H]8O)[C@H]7NC(C)=O)[C@H](O)[C@H]6O)[C@H]5NC(C)=O)[C@H](O)[C@H]4O)[C@H]3NC(C)=O)[C@H](O)[C@H]2O)[C@H](O)[C@@H](CO)O[C@H]1O [compound 4] | 53.4 | 51.0 |
| CC(=O)N[C@H]1[C@H](O[C@@H]([C@H](O)[C@@H](O)CO)[C@H](O)C(=O)O)O[C@H](CO)[C@@H](O)[C@@H]1O[C@@H]1O[C@H](C(=O)O)[C@@H](O[C@@H]2O[C@H](CO)[C@@H](O)[C@H](O[C@@H]3OC(C(=O)O)=C[C@H](O)[C@H]3O)[C@H]2NC(C)=O)[C@H](O)[C@H]1O [compound 10, 4-deoxy-α-L-threo-hexa-4-enepyranuronosyl-(1→3)-O-2-acetamide-2-deoxy-β-D-glucopyranosyl-(1→4)-3-O-β-D-glucopyranuronosyl-(1→3)-O-2-acetamide-2-deoxy-β-D-glucopyranosyl-(1→4)-3-O-β-D-glucopyranuronitol] | 39.8 | 55.1 |
| CC(=O)N[C@H]1[C@H](O[C@H]2[C@H](O)[C@@H](O)[C@H](O[C@@H]([C@H](O)[C@H](O)CO)[C@H](CO)NC(C)=O)O[C@@H]2C(=O)O)O[C@H](CO)[C@@H](O)[C@@H]1O[C@@H]1OC(C(=O)O)=C[C@H](O)[C@H]1O [compound 5, 4-deoxy-α-L-threo-hexa-4-enepyranuronosyl-(1→3)-O-2-acetamide-2-deoxy-β-D-glucopyranosyl-(1→4)-3-O-β-D-glucopyranuronosyl-(1→3)-O-2-acetamide-2-deoxy-β-D-glucopyranitol] | 16.2 | 18.1 |
| CC(=O)N[C@H]1[C@H](O[C@@H]([C@H](O)[C@@H](O)CO)[C@H](O)C(=O)O)O[C@H](CO)[C@@H](O)[C@@H]1O[C@@H]1OC(C(=O)O)=C[C@H](O)[C@H]1O [compound 9, 4-deoxy-α-L-threo-hexa-4-enepyranuronosyl-(1→3)-O-2-acetamide-2-deoxy-β-D-glucopyranosyl-(1→4)-3-O-β-D-glucopyranuronitol] | 13.9 | 20.0 |
